pIC50: −log10 of the molar value. Calls of active or inactive are those of the source. The rule behind the calls is not given here.
What was measured:
ACHN = test: Cytotoxicity against human ACHN cells up to 200 uM by modified MTT assay; format: functional, cell-based
A498 = test: Cytotoxicity against human A498 cells up to 200 uM by modified MTT assay; format: functional, cell-based
Acetylcholinesterase = Acetylcholinesterase (Homo sapiens, UniProt P22303); test: Inhibition of AChE (unknown origin) assessed as inhibition of acetylcholine hydrolysis preincubated for 15 mins by Ellman method
Chain of Acetylcholinesterase (P22303 whole entry): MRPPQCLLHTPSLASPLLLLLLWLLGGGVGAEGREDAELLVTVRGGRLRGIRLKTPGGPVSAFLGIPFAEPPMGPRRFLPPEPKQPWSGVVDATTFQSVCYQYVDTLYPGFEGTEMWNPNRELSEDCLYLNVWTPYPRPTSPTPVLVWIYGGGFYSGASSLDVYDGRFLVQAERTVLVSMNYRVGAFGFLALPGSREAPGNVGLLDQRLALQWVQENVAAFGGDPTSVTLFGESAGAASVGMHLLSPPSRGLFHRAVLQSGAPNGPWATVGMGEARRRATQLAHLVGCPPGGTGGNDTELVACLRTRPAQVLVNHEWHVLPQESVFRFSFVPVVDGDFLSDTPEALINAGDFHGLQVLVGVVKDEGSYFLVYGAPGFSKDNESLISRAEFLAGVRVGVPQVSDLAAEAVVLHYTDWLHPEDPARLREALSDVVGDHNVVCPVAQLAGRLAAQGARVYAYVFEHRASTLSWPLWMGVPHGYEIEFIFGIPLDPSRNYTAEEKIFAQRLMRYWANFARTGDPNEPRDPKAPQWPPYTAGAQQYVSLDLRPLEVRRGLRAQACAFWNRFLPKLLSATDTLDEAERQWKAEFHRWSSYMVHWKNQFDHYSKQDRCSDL

## CNc1ccccc1-c1nc(C(=O)O)cs1
ACHN
  Activity: inactive
A498
  Activity: inactive
Acetylcholinesterase
  pIC50: 4.17

## CNc1ccccc1-c1nc(C(N)=O)cs1
ACHN
  Activity: inactive
A498
  Activity: inactive
Acetylcholinesterase
  pIC50: 4.28

## CNc1ccccc1-c1nc(C(=O)OC)cs1
ACHN
  Activity: inactive
A498
  Activity: inactive
Acetylcholinesterase
  pIC50: 4.20

Reference: ChEMBL document CHEMBL3351633, “Anithiactins A-C, modified 2-phenylthiazoles from a mudflat-derived Streptomyces sp” (J Nat Prod, 2014)
